Results reported in ChEMBL document CHEMBL4184210, “Optimization of novel monobactams with activity against carbapenem-resistant Enterobacteriaceae - Identification of LYS228” (Bioorg Med Chem Lett, 2018).
≈ marks a conversion by molar mass, not a printed value.

Experiments:
Escherichia coli [1] = assay: microbe, parasite or virus in culture
Description: Antimicrobial activity against Escherichia coli expressing beta-lactamase AmpC by CLSI broth microdilution method

Escherichia coli [2] = assay: microbe, parasite or virus in culture; remark: listed apart in the source
Description: Antimicrobial activity against Escherichia coli expressing beta-lactamase TEM-121 by CLSI broth microdilution method

Escherichia coli [3] = assay: microbe, parasite or virus in culture; remark: listed apart in the source
Description: Antimicrobial activity against Escherichia coli expressing beta-lactamase SME-1 by CLSI broth microdilution method

Escherichia coli [4] = assay: microbe, parasite or virus in culture; remark: listed apart in the source
Description: Antimicrobial activity against Escherichia coli expressing beta-lactamase KPC-4 by CLSI broth microdilution method

Escherichia coli [5] = assay: microbe, parasite or virus in culture; remark: listed apart in the source
Description: Antimicrobial activity against Escherichia coli expressing beta-lactamase TEM-16 by CLSI broth microdilution method

Escherichia coli [6] = assay: microbe, parasite or virus in culture; remark: listed apart in the source
Description: Antimicrobial activity against Escherichia coli expressing beta-lactamase Oxa-51 by CLSI broth microdilution method

Escherichia coli [7] = assay: microbe, parasite or virus in culture; remark: listed apart in the source
Description: Antimicrobial activity against Escherichia coli expressing beta-lactamase Oxa-48 by CLSI broth microdilution method

Escherichia coli [8] = assay: microbe, parasite or virus in culture; remark: listed apart in the source
Description: Antimicrobial activity against Escherichia coli expressing beta-lactamase VEB-4 by CLSI broth microdilution method

Escherichia coli [9] = assay: microbe, parasite or virus in culture; remark: listed apart in the source
Description: Antimicrobial activity against Escherichia coli expressing beta-lactamase GIM-1 by CLSI broth microdilution method

Escherichia coli [10] = assay: microbe, parasite or virus in culture; remark: listed apart in the source
Description: Antimicrobial activity against wild type Escherichia coli by CLSI broth microdilution method

Escherichia coli [11] = assay: microbe, parasite or virus in culture; remark: listed apart in the source
Description: Antimicrobial activity against Escherichia coli expressing beta-lactamase TEM-47 by CLSI broth microdilution method

Escherichia coli [12] = assay: microbe, parasite or virus in culture; remark: listed apart in the source
Description: Antimicrobial activity against Escherichia coli expressing beta-lactamase CTXM-15 by CLSI broth microdilution method

Escherichia coli [13] = assay: Antimicrobial activity against Escherichia coli expressing beta-lactamase NDM-5 by CLSI broth microdilution method; type: functional
Escherichia coli [14] = assay: microbe, parasite or virus in culture; remark: listed apart in the source
Description: Antimicrobial activity against Escherichia coli expressing beta-lactamase KPC-8 by CLSI broth microdilution method

Escherichia coli [15] = assay: microbe, parasite or virus in culture; remark: listed apart in the source
Description: Antimicrobial activity against Escherichia coli expressing beta-lactamase DHA by CLSI broth microdilution method

Escherichia coli [16] = assay: microbe, parasite or virus in culture; remark: listed apart in the source
Description: Antimicrobial activity against Escherichia coli expressing beta-lactamase CMY-2 by CLSI broth microdilution method

Escherichia coli [17] = assay: microbe, parasite or virus in culture; remark: listed apart in the source
Description: Antimicrobial activity against Escherichia coli expressing beta-lactamase Oxa-10 by CLSI broth microdilution method

Escherichia coli [18] = assay: microbe, parasite or virus in culture; remark: listed apart in the source
Description: Antimicrobial activity against Escherichia coli expressing beta-lactamase VIM-1 by CLSI broth microdilution method

Escherichia coli [19] = assay: microbe, parasite or virus in culture; remark: listed apart in the source
Description: Antimicrobial activity against Escherichia coli expressing beta-lactamase IMP-1 by CLSI broth microdilution method

Escherichia coli [20] = assay: Antimicrobial activity against Escherichia coli expressing beta-lactamase TEM-1 by CLSI broth microdilution method; type: functional
Escherichia coli [21] = assay: Antimicrobial activity against Escherichia coli expressing beta-lactamase VEB-1 by CLSI broth microdilution method; type: functional
Escherichia coli [22] = assay: microbe, parasite or virus in culture; remark: listed apart in the source
Description: Antimicrobial activity against Escherichia coli expressing beta-lactamase PER-2 by CLSI broth microdilution method

Escherichia coli [23] = assay: microbe, parasite or virus in culture; remark: listed apart in the source
Description: Antimicrobial activity against Escherichia coli expressing beta-lactamase CTXM-3 by CLSI broth microdilution method

Escherichia coli [24] = assay: microbe, parasite or virus in culture; remark: listed apart in the source
Description: Antimicrobial activity against Escherichia coli expressing beta-lactamase PER-4 by CLSI broth microdilution method

Escherichia coli [25] = assay: microbe, parasite or virus in culture; remark: listed apart in the source
Description: Antimicrobial activity against Escherichia coli expressing beta-lactamase SPM-1 by CLSI broth microdilution method

Escherichia coli [26] = assay: microbe, parasite or virus in culture; remark: listed apart in the source
Description: Antimicrobial activity against Escherichia coli expressing beta-lactamase Oxa-23 by CLSI broth microdilution method

Escherichia coli [27] = assay: microbe, parasite or virus in culture; remark: listed apart in the source
Description: Antimicrobial activity against Escherichia coli expressing beta-lactamase PER-1 by CLSI broth microdilution method

Escherichia coli [28] = assay: microbe, parasite or virus in culture; remark: listed apart in the source
Description: Antimicrobial activity against Escherichia coli expressing beta-lactamase Oxa-146 by CLSI broth microdilution method

Escherichia coli [29] = assay: microbe, parasite or virus in culture; remark: listed apart in the source
Description: Antimicrobial activity against Escherichia coli expressing beta-lactamase MIR-1 by CLSI broth microdilution method

Escherichia coli [30] = assay: microbe, parasite or virus in culture; remark: listed apart in the source
Description: Antimicrobial activity against Escherichia coli expressing beta-lactamase NMC-A by CLSI broth microdilution method

Escherichia coli [31] = assay: microbe, parasite or virus in culture; remark: listed apart in the source
Description: Antimicrobial activity against Escherichia coli expressing beta-lactamase TEM-24 by CLSI broth microdilution method

Escherichia coli [32] = assay: microbe, parasite or virus in culture; remark: listed apart in the source
Description: Antimicrobial activity against Escherichia coli expressing beta-lactamase Oxa-40 by CLSI broth microdilution method

Escherichia coli [33] = assay: microbe, parasite or virus in culture; remark: listed apart in the source
Description: Antimicrobial activity against Escherichia coli expressing beta-lactamase IMI-1 by CLSI broth microdilution method

Escherichia coli [34] = assay: microbe, parasite or virus in culture; remark: listed apart in the source
Description: Antimicrobial activity against Escherichia coli expressing beta-lactamase GES-1 by CLSI broth microdilution method

Escherichia coli [35] = assay: microbe, parasite or virus in culture; remark: listed apart in the source
Description: Antimicrobial activity against Escherichia coli expressing beta-lactamase Oxa-160 by CLSI broth microdilution method

Escherichia coli [36] = assay: microbe, parasite or virus in culture; remark: listed apart in the source
Description: Antimicrobial activity against Escherichia coli expressing beta-lactamase VEB-7 by CLSI broth microdilution method

Escherichia coli [37] = assay: microbe, parasite or virus in culture; remark: listed apart in the source
Description: Antimicrobial activity against Escherichia coli expressing beta-lactamase Oxa-181 by CLSI broth microdilution method

Escherichia coli [38] = assay: microbe, parasite or virus in culture; remark: listed apart in the source
Description: Antimicrobial activity against Escherichia coli expressing beta-lactamase KPC-3 by CLSI broth microdilution method

Escherichia coli [39] = assay: Antimicrobial activity against Escherichia coli expressing beta-lactamase KPC-2 by CLSI broth microdilution method; type: functional
Escherichia coli [40] = assay: microbe, parasite or virus in culture; remark: listed apart in the source
Description: Antimicrobial activity against Escherichia coli expressing beta-lactamase Oxa-225 by CLSI broth microdilution method

Escherichia coli [41] = assay: Antimicrobial activity against Escherichia coli expressing beta-lactamase NDM-1 by CLSI broth microdilution method; type: functional
Escherichia coli [42] = assay: microbe, parasite or virus in culture; remark: listed apart in the source
Description: Antimicrobial activity against Escherichia coli expressing beta-lactamase Oxa-18 by CLSI broth microdilution method

Escherichia coli [43] = assay: microbe, parasite or virus in culture; remark: listed apart in the source
Description: Antimicrobial activity against Escherichia coli expressing beta-lactamase P99 by CLSI broth microdilution method

Escherichia coli [44] = assay: microbe, parasite or virus in culture; remark: listed apart in the source
Description: Antimicrobial activity against Escherichia coli expressing beta-lactamase TEM-10 by CLSI broth microdilution method

Escherichia coli [45] = assay: microbe, parasite or virus in culture; remark: listed apart in the source
Description: Antimicrobial activity against Escherichia coli expressing beta-lactamase SHV-12 by CLSI broth microdilution method

[46] = Chemical stability in pH 7.4 potassium phosphate buffer assessed as half life for compound hydrolysis at 37 degC by UPLC and mass spectrometry; type: physicochemical

With `CC1(C)[C@H](NC(=O)/C(=N\OCc2cc(=O)c(O)cn2O)c2csc(N)n2)C(=O)N1OS(=O)(=O)O` (stereo in doubt) the MIC (Escherichia coli [1]) was 0.5 mg/L (≈ 0.964 µM), the MIC (Escherichia coli [2]) was 8 mg/L (≈ 15.4 µM) and the MIC (Escherichia coli [3]) was 0.5 mg/L (≈ 0.964 µM). It also gave an MIC (Escherichia coli [4]) of 32 mg/L (≈ 61.7 µM), an MIC (Escherichia coli [5]) of 16 mg/L (≈ 30.9 µM) and an MIC (Escherichia coli [6]) of 0.06 mg/L (≈ 0.116 µM). The MIC (Escherichia coli [7]) was 0.125 mg/L (≈ 0.241 µM), the MIC (Escherichia coli [8]) was 8 mg/L (≈ 15.4 µM) and the MIC (Escherichia coli [9]) was at most 0.06 mg/L. The MIC (Escherichia coli [10]) was 0.25 mg/L (≈ 0.482 µM), the MIC (Escherichia coli [11]) was 2 mg/L (≈ 3.86 µM) and the MIC (Escherichia coli [12]) was 1 mg/L (≈ 1.93 µM). For the same compound, the MIC (Escherichia coli [13]) was 0.125 mg/L (≈ 0.241 µM), the MIC (Escherichia coli [14]) was 8 mg/L (≈ 15.4 µM) and the MIC (Escherichia coli [15]) was 0.25 mg/L (≈ 0.482 µM). It also gave an MIC (Escherichia coli [16]) of 0.25 mg/L (≈ 0.482 µM), an MIC (Escherichia coli [17]) of 0.125 mg/L (≈ 0.241 µM) and an MIC (Escherichia coli [18]) of at most 0.06 mg/L. It also gave an MIC (Escherichia coli [19]) of 0.25 mg/L (≈ 0.482 µM), an MIC (Escherichia coli [20]) of 0.5 mg/L (≈ 0.964 µM) and an MIC (Escherichia coli [21]) of 16 mg/L (≈ 30.9 µM). The MIC (Escherichia coli [22]) was over 64 mg/L, the MIC (Escherichia coli [23]) was 0.25 mg/L (≈ 0.482 µM) and the MIC (Escherichia coli [24]) was 0.5 mg/L (≈ 0.964 µM). For the same compound, the MIC (Escherichia coli [25]) was at most 0.06 mg/L, the MIC (Escherichia coli [26]) was 0.06 mg/L (≈ 0.116 µM) and the MIC (Escherichia coli [27]) was 16 mg/L (≈ 30.9 µM). It also gave an MIC (Escherichia coli [28]) of 2 mg/L (≈ 3.86 µM), an MIC (Escherichia coli [29]) of 2 mg/L (≈ 3.86 µM) and an MIC (Escherichia coli [30]) of 0.25 mg/L (≈ 0.482 µM). The MIC (Escherichia coli [31]) was 16 mg/L (≈ 30.9 µM), the MIC (Escherichia coli [32]) was at most 0.03 mg/L and the MIC (Escherichia coli [33]) was 0.25 mg/L (≈ 0.482 µM). The MIC (Escherichia coli [34]) was 0.25 mg/L (≈ 0.482 µM), the MIC (Escherichia coli [35]) was 8 mg/L (≈ 15.4 µM) and the MIC (Escherichia coli [36]) was 2 mg/L (≈ 3.86 µM). For the same compound, the MIC (Escherichia coli [37]) was 0.125 mg/L (≈ 0.241 µM), the MIC (Escherichia coli [38]) was 0.5 mg/L (≈ 0.964 µM) and the MIC (Escherichia coli [39]) was 0.5 mg/L (≈ 0.964 µM). The MIC (Escherichia coli [40]) was 2 mg/L (≈ 3.86 µM), the MIC (Escherichia coli [41]) was 0.25 mg/L (≈ 0.482 µM) and the MIC (Escherichia coli [42]) was 16 mg/L (≈ 30.9 µM). The MIC (Escherichia coli [43]) was 0.5 mg/L (≈ 0.964 µM), the MIC (Escherichia coli [44]) was over 64 mg/L and the MIC (Escherichia coli [45]) was over 32 mg/L.

`CC(C)(O/N=C(\C(=O)N[C@@H]1C(=O)N(S(=O)(=O)O)[C@@H]1CN1CCCCC1=O)c1csc(N)n1)C(=O)O` (stereo in doubt) showed an MIC (Escherichia coli [1]) of 16 mg/L (≈ 30 µM), an MIC (Escherichia coli [10]) of 4 mg/L (≈ 7.51 µM) and an MIC (Escherichia coli [12]) of 8 mg/L (≈ 15 µM). For the same compound, the half-life [46] was 214 h, the MIC (Escherichia coli [39]) was 8 mg/L (≈ 15 µM) and the MIC (Escherichia coli [41]) was 8 mg/L (≈ 15 µM). The MIC (Escherichia coli [44]) was 4 mg/L (≈ 7.51 µM) and the MIC (Escherichia coli [45]) was 4 mg/L (≈ 7.51 µM).

`CC(C)(O/N=C(\C(=O)N[C@@H]1C(=O)N(S(=O)(=O)O)[C@@H]1Cn1cnnc1)c1csc(N)n1)C(=O)O` (stereo in doubt) gave an MIC (Escherichia coli [1]) of 2 mg/L (≈ 3.98 µM), an MIC (Escherichia coli [10]) of 1 mg/L (≈ 1.99 µM) and an MIC (Escherichia coli [12]) of 1 mg/L (≈ 1.99 µM). It also gave a half-life [46] of 113 h, an MIC (Escherichia coli [39]) of 16 mg/L (≈ 31.8 µM) and an MIC (Escherichia coli [41]) of 1 mg/L (≈ 1.99 µM). The MIC (Escherichia coli [44]) was 32 mg/L (≈ 63.7 µM) and the MIC (Escherichia coli [45]) was 16 mg/L (≈ 31.8 µM).
